# Reference: ChEMBL document CHEMBL3745651, “Flat SAR of P3-methylsulphonamide based small molecule legumain inhibitors” (Bioorg Med Chem Lett, 2016)
# What was measured:
# [1] = biological target: T1, Legumain (Homo sapiens, UniProt Q99538); assay: Inhibition of recombinant human legumain using Z-Ala-Ala-Asn-MCA as substrate preincubated with protein followed by substrate addition measured every 2 mins for 60 mins by microplate reader analysis
# T1 sequence (Q99538 whole entry): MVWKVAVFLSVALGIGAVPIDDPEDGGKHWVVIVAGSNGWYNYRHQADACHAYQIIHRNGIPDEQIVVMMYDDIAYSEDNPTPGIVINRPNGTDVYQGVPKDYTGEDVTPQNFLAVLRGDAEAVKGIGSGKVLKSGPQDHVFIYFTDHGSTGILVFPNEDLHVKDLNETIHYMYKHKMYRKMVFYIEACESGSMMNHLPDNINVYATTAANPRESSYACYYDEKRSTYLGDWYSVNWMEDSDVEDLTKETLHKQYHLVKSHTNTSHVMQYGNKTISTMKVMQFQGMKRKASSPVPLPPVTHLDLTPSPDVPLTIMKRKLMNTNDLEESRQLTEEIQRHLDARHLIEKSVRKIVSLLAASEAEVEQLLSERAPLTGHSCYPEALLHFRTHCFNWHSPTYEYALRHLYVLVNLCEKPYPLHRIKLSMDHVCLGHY
# [2] = Kinetic solubility of compound in pH 7.4 PBS buffer after 90 mins by plate reader analysis; assay type: physicochemical; settings: read-out: Kinetic_solubility
# [3] = Intrinsic clearance in mouse liver microsomes at 1 uM incubated for 50 mins by LC-MS/MS method in presence of NADPH; assay type: ADME; settings: read-out: CLH
# [4] = Intrinsic clearance in rat liver microsomes at 1 uM incubated for 50 mins by LC-MS/MS method in presence of NADPH; assay type: ADME; settings: read-out: CLH
# [5] = Intrinsic clearance in rat hepatocytes assessed per 10^6 cells at 1 uM incubated at 37 degC for 50 mins by LC-MS/MS method […]; assay type: ADME, cell-based, Hepatocyte; settings: read-out: CLH
IC50 [1] [nM],Compound,other results
425,CC(C(=O)N[C@H](C#N)CC(N)=O)N(Cc1ccc(-c2cccc(Cl)c2)cc1)S(C)(=O)=O (mixture of isomers),
252,C[C@@H](C(=O)N[C@H](C#N)CC(N)=O)N(Cc1ccc(-c2ccc(F)c(F)c2)cc1)S(C)(=O)=O,
586,CCOc1cccc(-c2ccc(CN([C@@H](C)C(=O)N[C@H](C#N)CC(N)=O)S(C)(=O)=O)cc2)c1,
356,C[C@@H](C(=O)N[C@H](C#N)CC(N)=O)N(Cc1ccc(-c2ccccc2F)cc1)S(C)(=O)=O,
5850,COc1cccc(-c2ccc(CN([C@H](C)C(=O)N[C@H](C#N)CC(N)=O)S(C)(=O)=O)cc2)c1,
> 10000,C[C@H](C(=O)N[C@H](C#N)CC(N)=O)N(Cc1ccc(-c2ccccc2F)cc1)S(C)(=O)=O,
882,CC(C)Oc1cccc(-c2ccc(CN([C@@H](C)C(=O)N[C@H](C#N)CC(N)=O)S(C)(=O)=O)cc2)c1,
7750,CCC[C@@H](C(=O)N[C@H](C#N)CC(N)=O)N(Cc1ccc(-c2cccc(F)c2F)cc1)S(C)(=O)=O,
378,COc1cccc(-c2ccc(CN([C@@H](C)C(=O)N[C@H](C#N)CC(N)=O)S(C)(=O)=O)cc2)c1,solubility kinetic at 1.5 h [2]: 193 µM; microsomal CLint at 1 µM [3]: 24 µL/min/mg; microsomal CLint at 1 µM [4]: 38 µL/min/mg; hepatocyte CLint at 1 µM [5]: 69 µL/min/1e6 cells
9250,C[C@H](C(=O)N[C@H](C#N)CC(N)=O)N(Cc1ccc(-c2cc(F)cc(F)c2)cc1)S(C)(=O)=O,
1460,C[C@H](C(=O)N[C@H](C#N)CC(N)=O)N(Cc1ccc(-c2cccc(F)c2F)cc1)S(C)(=O)=O,
> 10000,CCOc1cccc(-c2ccc(CN([C@H](C)C(=O)N[C@H](C#N)CC(N)=O)S(C)(=O)=O)cc2)c1,
2260,C[C@H](C(=O)N[C@H](C#N)CC(N)=O)N(Cc1ccc(-c2cccc(F)c2)cc1)S(C)(=O)=O,
5050,CC(C)Oc1cccc(-c2ccc(CN([C@H](C)C(=O)N[C@H](C#N)CC(N)=O)S(C)(=O)=O)cc2)c1,
2270,CC(C)CS(=O)(=O)N(Cc1ccc(-c2cccc(F)c2)cc1)[C@@H](C)C(=O)N[C@H](C#N)CC(N)=O,
1360,C[C@@H](C(=O)N[C@H](C#N)CC(N)=O)N(Cc1ccc(-c2cc(F)cc(F)c2)cc1)S(C)(=O)=O,
4380,CCC[C@@H](C(=O)N[C@H](C#N)CC(N)=O)N(Cc1ccc(-c2cccc(F)c2)cc1)S(C)(=O)=O,
6740,CCCS(=O)(=O)N(Cc1ccc(-c2cccc(F)c2F)cc1)[C@@H](C)C(=O)N[C@H](C#N)CC(N)=O,
128,C[C@@H](C(=O)N[C@H](C#N)CC(N)=O)N(Cc1ccc(-c2cccc(F)c2)cc1)S(C)(=O)=O,solubility kinetic at 1.5 h [2]: 185 µM; microsomal CLint at 1 µM [3]: 4 µL/min/mg; microsomal CLint at 1 µM [4]: 19 µL/min/mg; hepatocyte CLint at 1 µM [5]: 45 µL/min/1e6 cells
1090,CCS(=O)(=O)N(Cc1ccc(-c2cccc(F)c2F)cc1)[C@@H](C)C(=O)N[C@H](C#N)CC(N)=O,
323,C[C@@H](C(=O)N[C@H](C#N)CC(N)=O)N(Cc1ccc(-c2cccc(F)c2F)cc1)S(C)(=O)=O,solubility kinetic at 1.5 h [2]: 181 µM; microsomal CLint at 1 µM [3]: 3 µL/min/mg; microsomal CLint at 1 µM [4]: 17 µL/min/mg; hepatocyte CLint at 1 µM [5]: 38 µL/min/1e6 cells
6300,C[C@H](C(=O)N[C@H](C#N)CC(N)=O)N(Cc1ccc(-c2ccc(F)c(F)c2)cc1)S(C)(=O)=O,
5850,CC[C@@H](C(=O)N[C@H](C#N)CC(N)=O)N(Cc1ccc(-c2cccc(F)c2F)cc1)S(C)(=O)=O,
